Several values for one entry are separate records, joined by “and”; a condition that tells them apart may be missing. Equal values may be shown once.
Target: T1, TMPRSS2 (Homo sapiens, UniProt O15393)
T1 construct: purchased BPS Bioscience 780837
Test: TMPRSS2 fluorogenic protease inhibition assay (BPS Bioscience kit)
Assay type: biochemical
Details: for IC50: fluorogenic substrate, 30 min pre-incubation at room temperature, average of two independent experiments in duplicate (N = 4), read-out: IC50, in vitro TMPRSS2 enzyme inhibition

T1 sequence (O15393 whole entry): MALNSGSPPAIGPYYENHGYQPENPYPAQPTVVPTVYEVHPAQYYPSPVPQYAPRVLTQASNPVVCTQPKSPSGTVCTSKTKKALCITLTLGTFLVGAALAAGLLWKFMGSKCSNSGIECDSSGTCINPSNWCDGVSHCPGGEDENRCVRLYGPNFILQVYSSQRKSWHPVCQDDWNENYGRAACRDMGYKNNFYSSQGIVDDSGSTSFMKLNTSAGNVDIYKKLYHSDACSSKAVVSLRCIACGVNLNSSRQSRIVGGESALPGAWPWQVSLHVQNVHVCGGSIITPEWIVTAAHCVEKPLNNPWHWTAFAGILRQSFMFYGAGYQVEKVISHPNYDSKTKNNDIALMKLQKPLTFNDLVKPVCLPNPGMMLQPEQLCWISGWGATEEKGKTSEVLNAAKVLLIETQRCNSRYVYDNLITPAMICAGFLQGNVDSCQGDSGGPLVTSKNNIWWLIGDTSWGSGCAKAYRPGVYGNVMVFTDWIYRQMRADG

| IC50 | TMPRSS2 inhibition (in words) (fluorogenic assay, concentrations 0.007-0.1054 µM) | SMILES |
| --- | --- | --- |
| 1.27 nM and 1.3 nM |  | CNC(=O)COC(=O)Cc1ccc(OC(=O)c2ccc(NC(=N)N)cc2)cc1 [Compound 1c] |
| 1.79 nM and 1.8 nM |  | N=C(N)Nc1ccc(C(=O)Oc2ccc(CC(=O)OCC(=O)N3CCOCC3)cc2)cc1 [Compound 1d] |
|  | fell out of the range of the assay | CN(C)C(=O)CNC(=O)Cc1ccc(NC(=O)c2ccc(NC(=N)N)cc2)cc1 [Compound 1e] |

Source: article PMC12295440, “C-Terminal Analogues of Camostat Retain TMPRSS2 Protease Inhibition: New Synthetic Directions for Antiviral Repurposing of Guanidinium-Based Drugs in Respiratory Infections” (International Journal of Molecular Sciences, 2025)
